# From patent publication US20070197523A1, “CALCIUM CHANNEL ANTAGONISTS” (ICAGEN, INC., priority 2005, published 2007)
# pIC50: −log10 of the molar value.
# Tested on: T-type calcium channels
# Experiment: T-type calcium channel inhibitory activity (fluorometric FLIPR Fluo-4 and whole cell patch clamp)
# Type: cell-based, mammalian
# Conditions: inhibition of T-type calcium channels; cells natively expressing or HEK-293 cells expressing recombinant channels
# Procedure: T-type calcium channel inhibitory activity of some compounds of the invention was evaluated using both fluorometric as well as electrophysiological measurement methodologies, which are known to those skilled in the art. Fluorescence measurement of changes in intracellular calcium due to entry of calcium through T-type calcium channels was assessed using calcium sensitive fluorescent dyes Fluo-4 and Fluo-3. In brief, cells natively expressing T-type channels or HEK-293 cells transiently or stably expressing recombinant mammalian T-type calcium channels grown in 96-well tissue culture plates in DMEM/High glucose, Hyclone, Fetal Bovine Serum (10%), and 2 mM sodium pyruvate 2 mM (and for cells lines recombinantly expressing T-type calcium channels, G418 @ 400 mg/liter) were loaded with 4 μM Fluo-4 made up in Earls Balanced Salt Solution (EBSS). After incubation for 30 minutes at room temperature, cells were washed with low calcium (0.5 mM) EBSS to remove extracellular Fluo-4. Baseline fluorescence was measured in a FLIPR (FLuorescence Image Plate Reader) (Molecular Devices Inc) after applying test compounds at desired concentration for 5-10 minutes. The effect of test compound on calcium entry was assessed by monitoring changes in Fluo-4 fluorescence following an elevation of extracellular calcium concentration from 0.5 mM to 5 mM. […] Native cells natively expressing T-type channels or HEK-293 cells transiently or stably expressing recombinant mammalian T-type calcium channels were grown in DMEM/High glucose, Hyclone, Fetal Bovine Serum (10%), 2 mM sodium pyruvate 2 mM (and for cells lines recombinantly expressing T-type calcium channels, G418 @ 400 mg/liter) on glass coverslips in 35 mm tissue culture dishes. Experiments were performed by placing T-type calcium channels expressing cells in a recording chamber perfused with EBSS (which contains (in mM): 132 NaCl, 5.4 KCl, 1.8 CaCl2, 0.8 MgCl2, 10 Hepes, 5 glucose, pH 7.4 with NaOH) on the stage of an inverted microscope. Electrical currents were measured using the whole cell configuration of the patch clamp technique (Axopatch 200B, Axon Instruments (Molecular Devices) (see Hamill et al (1981) Pflugers Arch. 1981 391:85-100) using 2-2.5 MOhm resistance glass pipettes filled with 135 CsF, 5 CsCl, 5 NaCl, 5 EGTA, 10 HEPES, pH 7.3 with CsOH, Osmolarity ˜288 mOsm. Test compound effects were typically assessed under conditions in which approximately half of the available channels were inactivated either by an 8 second conditioning depolarization from a holding potential of −100 mV to a potential ranging from −70 mV to −60 mV or by continually holding the membrane potential at −70 mV. Test compounds were assessed for their ability to reduce the amplitude of the inward T-type calcium current elicited by a 100 ms step depolarization −20 or −30 mV.
row,Molecule,pIC50
1,"CCOc1cccc(S(=O)(=O)c2cnc(N(CCCN3CCOCC3)c3nc(C)nc(NCCOC)c3F)s2)c1 [Example 15, N-[5-(3-ethoxy-benzenesulfonyl)-thiazol-2-yl]-5-fluoro-N′-(2-methoxy-ethyl)-2-methyl-N-(3′-morpholin-4-yl-propyl)-pyrimidine-4,6-diamine]",6.00 to 9.00
2,"CCOc1cccc(S(=O)(=O)c2cnc(Nc3cc(NCCN4CCCC4)nc(C(F)(F)F)n3)s2)c1 [Example 16, N-[5-(3-Ethoxy-benzenesulfonyl)-thiazol-2-yl]-N′-(2-pyrrolidin-1-yl-ethyl)-2-trifluoromethyl-pyrimidine-4,6-diamine]",6.00 to 9.00
3,"CCOc1cccc(S(=O)(=O)c2cnc(Nc3cc(NCCOC)nc(C(F)(F)F)n3)s2)c1 [Example 17, N-[5-(3-ethoxy-benzenesulfonyl)-thiazol-2-yl]-N′-(2-methoxy-ethyl)-2-trifluoromethyl-pyrimidine-4,6-diamine]",6.00 to 9.00
4,"CCOc1cccc(S(=O)(=O)c2cnc(Nc3cc(NCC(C)(C)N)nc(C(F)(F)F)n3)s2)c1 [Example 18, N-(2-Amino-2-methyl-propyl)-N′-[5-(3-ethoxy-benzenesulfonyl)-thiazol-2-yl]-2-trifluoromethyl-pyrimidine-4,6-diamine]",6.00 to 9.00
5,"CCOc1cccc(S(=O)(=O)c2cnc(Nc3cc(NCCN(C)C)nc(C(F)(F)F)n3)s2)c1 [Example 19, N-(2-Dimethylamino-ethyl)-N′-[5-(3-ethoxy-benzenesulfonyl)-thiazol-2-yl]-2-trifluoromethyl-pyrimidine-4,6-diamine]",6.00 to 9.00
6,"CCOc1cccc(S(=O)(=O)c2cnc(Nc3cc(OCCN4CCCC4)nc(C)n3)s2)c1 [Example 20, [5-(3-Ethoxy-benzenesulfonyl)-thiazol-2-yl]-[2-methyl-6-(2-pyrrolidin-1-yl-ethoxy)-pyrimidin-4-yl]-amine]",6.00 to 9.00
7,"CCOc1cccc(S(=O)(=O)c2cnc(Nc3cc(OC[C@H]4CCCN4)nc(C)n3)s2)c1 [Example 21, N-[5-(3-ethoxy-benzenesulfonyl)-thiazol-2-yl]-[2-methyl-((6R)-1-pyrrolidin-2-yl-methoxy)pyrimidin-4-yl]-amine]",6.00 to 9.00
8,"CCOc1cccc(S(=O)(=O)c2cnc(Nc3cc(OC4CCNC4)nc(C)n3)s2)c1 (centres unmarked) [Example 22, N-[5-(3-ethoxy-benzenesulfonyl)-thiazol-2-yl]-[2-methyl-6-(pyrrolidin-3-yloxy)pyrimidin-4-yl]-amine]",6.00 to 9.00
9,"CCOc1cccc(S(=O)(=O)c2cnc(Nc3cc(OCCOC)nc(C)n3)s2)c1 [Example 23, N-[5-(3-ethoxy-benzenesulfonyl)-thiazol-2-yl]-[6-(2-methoxy-ethoxy)-2-methyl-pyrimidin-4-yl]-amine]",6.00 to 9.00
10,"CCOc1cccc(S(=O)(=O)c2cnc(Nc3nc(C)nc(OCCN4CCCC4)c3F)s2)c1 [Example 24, [5-(3-Ethoxy-benzenesulfonyl)-thiazol-2-yl]-[5-fluoro-2-methyl-6-(2-pyrrolidin-1-yl-ethoxy)-pyrimidin-4-yl]-amine]",6.00 to 9.00
11,"CCOc1cccc(S(=O)(=O)c2cnc(Nc3nc(C)nc(OCCOC)c3F)s2)c1 [Example 25, N-[5-(3-ethoxy-benzenesulfonyl)-thiazol-2-yl]-[5-fluoro-6-(2-methoxy-ethoxy)-2-methyl-pyrimidin-4-yl]-amine]",6.00 to 9.00
12,"CCOc1cccc(S(=O)(=O)c2cnc(Nc3nc(C)nc(OCCC4CCCC4)c3F)s2)c1 [Example 26, [6-(2-Cyclopentyl-ethoxy)-5-fluoro-2-methyl-pyrimidn-4-yl]-[5-(3-ethoxy-benzenesulfonyl)-thiazol-2-yl]-amine]",3.00 to 5.00
13,[5-(3-Ethoxy-benzenesulfonyl)-thiazol-2-yl]-[6-(3-methylamino)propyl)-2-methyl-pyrimidin-4-yl]-amine [Example 35],6.00 to 9.00

# The remaining lines, values ahead:
row,pIC50,Molecule
1,6.00 to 9.00,"CCOc1cccc(S(=O)(=O)c2cnc(Nc3nc(C)nc(OCCN(C)C)c3F)s2)c1 [Example 27, [6-(2-Dimethylamino-ethoxy)-5-fluoro-2-methyl-pyrimidn-4-yl]-[5-(3-ethoxy-benzenesulfonyl)-thiazol-2-yl]-amine]"
2,6.00 to 9.00,"CCOc1cccc(S(=O)(=O)c2cnc(Nc3cc(OCCN(C)C)nc(C(F)(F)F)n3)s2)c1 [Example 28, [6-(2-Dimethylamino-ethoxy)-2-trifluormethyl-pyrimidin-4-yl]-[5-(3-Ethoxy-benzenesulfonyl)-thiazol-2-yl]-amine]"
3,5.00 to 6.00,"CCOc1cccc(S(=O)(=O)c2cnc(Nc3cc(C#CCOC)nc(C)n3)s2)c1 [Example 29, [5-(3-Ethoxy-benzenesulfonyl)-thiazol-2-yl]-[6-(3-methoxy-prop-1-ynyl)-2-methyl-pyrimidin-4-yl]-amine]"
4,6.00 to 9.00,"CCOc1cccc(S(=O)(=O)c2cnc(Nc3cc(C#CCN(C)C(=O)OC(C)(C)C)nc(C)n3)s2)c1 [Example 30, (3-{6-[5-(3-Ethoxy-benzenesulfonyl)-thiazol-2ylamino]-2-methyl-pyrimidin-4-yl}-prop-2-ynyl)-methyl-carbamic acid tert-butyl ester]"
5,6.00 to 9.00,"CCOc1cccc(S(=O)(=O)c2cnc(Nc3cc(C#CC(C)(C)N(C)C(=O)OC(C)(C)C)nc(C)n3)s2)c1 [Example 31, (3-{6-[5-(3-Ethoxy-benzenesulfonyl)-thiazol-2ylamino]-2-methyl-pyrimidin-4-yl}-1,1-dimethyl-prop-2-ynyl)-methyl-carbamic acid tert-butyl ester]"
6,6.00 to 9.00,"CCOc1cccc(S(=O)(=O)c2cnc(Nc3cc(CCCOC)nc(C)n3)s2)c1 [Example 32, [5-(3-Ethoxy-benzenesulfonyl)-thiazol-2-yl]-[6-(3-methoxy-propyl)-2-methyl-pyrimidin-4-yl]-amine]"
7,6.00 to 9.00,"CCOc1cccc(S(=O)(=O)c2cnc(Nc3cc(CCC(C)(C)N)nc(C)n3)s2)c1 [Example 36, [6-(3-Amino-3-methyl-butyl)-2-methyl-pyrimidin-4-yl]-[5-(3-ethoxy-benzenesulfonyl)-thiazol-2yl]-amine]"
